Results published in patent US9828389B2, “Tetrazolinone compounds and their use as pesticides” (SUMITOMO CHEMICAL COMPANY, LIMITED, priority 2012, dated 2017).

System: wheat rust fungi (Puccinia recondita)
Assay: Wheat rust control test, foliar spray on wheat
Assay type: in vivo
Conditions: Comparative Test Example: wheat (cv; Shirogane), foliar spray 500 ppm, inoculated after 5 days, observed after 1+8 days
Procedure: The spores of wheat rust fungi (Puccinia recondita) were sprinkling-inoculated. After inoculation, the plants were placed under a dark and humid condition at 23° C. for 1 day and were then cultivated at 20° C. under lighting for 8 days and a lesion area was observed.

Row | Compound | lesion area compared to the lesion area in untreated plants [%]
1 | Cc1cc(C)n(-c2ccc(OCc3ccccc3-n3nnn(C)c3=O)c(Cl)c2)n1 [control compound, 1-{2-{2-chloro-4-(3,5-dimethyl-pyrazole-1-yl)-phenoxymethyl}-phenyl}-4-methyl-1,4-dihydrotetrazole-5-one] | ≥ 70

System: cotton aphid (Aphis gossypii)
Assay: Cotton aphid control test, spray on infested cucumber
Assay type: in vivo
Conditions: 144 h, 20 mL sprayed on cucumber with 30 aphids, counted after 6 days
Procedure: Cucumber (cv; Sagami-hanjiro-fushinari) was grown in a polyethylene cup until the first true leaf was developed. Thirty (30) heads of cotton aphid (Aphis gossypii) (including the adults and the larvae) was released onto the leaves of the […] and next day, the above-mentioned testing drug dilutions 20 mL were sprayed. […] Control value (%)={1−(Cb×Tai)/(Cai×Tb)}×100 wherein the symbols in the formula represent the following descriptions. Cb: Number of the insects before treatment in untreated area; Cai: Number of the insects at the time of the observation in untreated area; Tb: Number of the insects before treatment in treated area; Tai: Number of the insects at the time of the observation in treated area;

Row | Compound | pest or weed control at 500 ppm [%]
2 | Cc1cc(C)n(-c2ccc(OCc3c(Cl)cccc3-n3nnn(C)c3=O)c(Cl)c2)n1 [Present compound 9, 1-{3-chloro-2-[2-chloro-4-(3,5-dimethyl-pyrazol-1-yl)-phenoxymethyl]-phenyl}-4-methyl-1,4-dihydrotetrazole-5-one] | ≥ 90
3 | Cc1cc(C)n(-c2ccc(OCc3c(Cl)cccc3-n3nnn(C)c3=O)cc2Cl)n1 [Present compound 11, 1-{3-chloro-2-[3-chloro-4-(3,5-dimethyl-pyrazol-1-yl)-phenoxymethyl]-phenyl}-4-methyl-1,4-dihydrotetrazole-5-one] | ≥ 90
4 | Cc1ccn(-c2ccc(OCc3c(C)cccc3-n3nnn(C)c3=O)c(C)c2)n1 [Present compound 22, 1-{3-methyl-2-[2-methyl-4-(3-methyl-pyrazol-1-yl)-phenoxymethyl]-phenyl}-4-methyl-1,4-dihydrotetrazole-5-one] | ≥ 90
5 | CCc1cccc(-n2nnn(C)c2=O)c1COc1ccc(-n2nc(C)cc2C)cc1C [Present compound 50, 1-{3-ethyl-2-[2-methyl-4-(3,5-dimethyl-pyrazol-1-yl)-phenoxymethyl]-phenyl}-4-methyl-1,4-dihydrotetrazole-5-one] | ≥ 90
6 | CCc1cccc(-n2nnn(C)c2=O)c1COc1ccc(-n2cc(C)c(C)n2)cc1C [Present compound 53, 1-{3-ethyl-2-[2-methyl-4-(3,4-dimethyl-pyrazol-1-yl)-phenoxymethyl]-phenyl}-4-methyl-1,4-dihydrotetrazole-5-one] | ≥ 90
7 | CCc1cccc(-n2nnn(C)c2=O)c1COc1ccc(-c2cc(C)n(C)n2)cc1C [Present compound 59, 1-{3-ethyl-2-[2-methyl-4-(1,5-dimethyl-1H-pyrazol-3-yl)-phenoxymethyl]-phenyl}-4-methyl-1,4-dihydrotetrazole-5-one] | ≥ 90
8 | COc1cccc(-n2nnn(C)c2=O)c1COc1ccc(-c2cnn(C)c2)cc1C [Present compound 68, 1-{3-methoxy-2-[2-methyl-4-(1-methyl-1H-pyrazole-4-yl)-phenoxymethyl]-phenyl}-4-methyl-1,4-dihydrotetrazole-5-one] | ≥ 90
9 | COc1cccc(-n2nnn(C)c2=O)c1COc1ccc(-c2cnn(CC(C)C)c2)cc1C [Present compound 77, 1-{3-methoxy-2-[2-methyl-4-(1-isobutyl-1H-pyrazole-4-yl)-phenoxymethyl]-phenyl}-4-methyl-1,4-dihydrotetrazole-5-one] | ≥ 90
10 | CCn1ccc(-c2ccc(OCc3c(OC)cccc3-n3nnn(C)c3=O)c(C)c2)n1 [Present compound 87, 1-{3-methoxy-2-[2-methyl-4-(1-ethyl-1H-pyrazol-3-yl)-phenoxymethyl]-phenyl}-4-methyl-1,4-dihydrotetrazole-5-one] | ≥ 90
11 | COc1cccc(-n2nnn(C)c2=O)c1COc1ccc(-c2ccn(S(C)(=O)=O)n2)cc1C [Present compound 112, 1-{3-methoxy-2-[2-methyl-4-(1-methanesulfonyl-1H-pyrazol-3-yl)-phenoxymethyl]-phenyl}-4-methyl-1,4-dihydrotetrazole-5-one] | ≥ 90
12 | CCOc1cccc(-n2nnn(C)c2=O)c1COc1ccc(-n2cc(C)c(C)n2)cc1C [Present compound 129, 1-{3-ethoxy-2-[2-methyl-4-(3,4-dimethyl-pyrazol-1-yl)-phenoxymethyl]-phenyl}-4-methyl-1,4-dihydrotetrazole-5-one] | ≥ 90
13 | COc1cccc(-n2nnn(C)c2=O)c1COc1ccc(-c2nn(C)cc2C)cc1Cl [Present compound 154, 1-{3-methoxy-2-[2-chloro-4-(1,4-dimethyl-1H-pyrazol-3-yl)-phenoxymethyl]-phenyl}-4-methyl-1,4-dihydrotetrazole-5-one] | ≥ 90
14 | CCc1cccc(-n2nnn(C)c2=O)c1COc1ccc(-c2nn(C)c(Cl)c2C)cc1C [Present compound 206, 1-{3-ethyl-2-[2-methyl-4-(5-chloro-1,4-dimethyl-1H-pyrazol-3-yl)-phenoxymethyl]-phenyl}-4-methyl-1,4-dihydrotetrazole-5-one] | ≥ 90
15 | Cc1cc(-c2nn(C)c(Cl)c2C)ccc1OCc1c(-n2nnn(C)c2=O)cccc1C(F)(F)F [Present compound 209, 1-{2-[2-methyl-4-(5-chloro-1,4-dimethyl-1H-pyrazol-3-yl)-phenoxymethyl]-3-trifluoromethyl-phenyl}-4-methyl-, 4-dihydrotetrazole-5-one] | ≥ 90
16 | CCOc1cccc(-n2nnn(C)c2=O)c1COc1ccc(-c2nn(C)c(Cl)c2C)cc1C [Present compound 210, 1-{3-ethoxy-2-[2-methyl-4-(5-chloro-1,4-dimethyl-1H-pyrazol-3-yl)-phenoxymethyl]-phenyl}-4-methyl-1,4-dihydrotetrazole-5-one] | ≥ 90
